Data published in paper PMC8213057, “Targeting ALK2: An Open Science Approach to Developing Therapeutics for the Treatment of Diffuse Intrinsic Pontine Glioma” (Journal of Medicinal Chemistry, 2020).

Experiments:
AKT1 = AKT1 (Homo sapiens, UniProt P31749); settings: 1 μM; Run 1, Run 2
MLCK/MYLK = MLCK/MYLK (Homo sapiens, UniProt Q15746); settings: 1 μM; Run 1, Run 2
ABL1 = ABL1 (Homo sapiens, UniProt P00519); assay: biochemical; settings: read-out: % enzyme activity, 1 μM; Run 1, Run 2
CDK18/cyclin Y (PCTK3) = CDK18/cyclin Y (PCTK3) (Homo sapiens, UniProt Q07002); assay: biochemical; settings: read-out: % enzyme activity, 1 μM; Run 1, Run 2
CK1a1L = molecular target: T1, CK1a1L (Homo sapiens, UniProt Q8N752); assay: biochemical; settings: read-out: % enzyme activity, 1 μM; Run 1, Run 2
T1 sequence (Q8N752 1-337): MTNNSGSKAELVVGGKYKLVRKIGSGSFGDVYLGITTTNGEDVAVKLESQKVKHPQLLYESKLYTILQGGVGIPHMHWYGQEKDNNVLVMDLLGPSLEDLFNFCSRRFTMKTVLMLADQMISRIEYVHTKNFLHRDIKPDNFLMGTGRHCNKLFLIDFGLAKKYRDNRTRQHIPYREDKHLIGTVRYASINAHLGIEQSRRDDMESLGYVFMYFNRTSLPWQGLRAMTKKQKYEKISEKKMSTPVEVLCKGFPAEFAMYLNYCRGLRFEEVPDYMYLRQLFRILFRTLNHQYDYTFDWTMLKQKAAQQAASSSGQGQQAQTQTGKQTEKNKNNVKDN

CK2a = CK2a (Homo sapiens, UniProt P68400); assay: biochemical; settings: read-out: % enzyme activity, 1 μM; Run 1, Run 2
CLK3 = CLK3 (Homo sapiens, UniProt P49761); assay: biochemical; settings: read-out: % enzyme activity, 1 μM; Run 1, Run 2
ERK1 = ERK1 (Homo sapiens, UniProt P27361); assay: biochemical; settings: read-out: % enzyme activity, 1 μM; Run 1, Run 2
GRK4 = GRK4 (Homo sapiens, UniProt P32298); assay: biochemical; settings: read-out: % enzyme activity, 1 μM; Run 1, Run 2
LCK = LCK (Homo sapiens, UniProt P06239); assay: biochemical; settings: read-out: % enzyme activity, 1 μM; Run 1, Run 2
MLK3/MAP3K11 = MLK3/MAP3K11 (Homo sapiens, UniProt Q16584); assay: biochemical; settings: read-out: % enzyme activity, 1 μM; Run 1, Run 2
OSR1/OXSR1 = OSR1/OXSR1 (Homo sapiens, UniProt O95747); assay: biochemical; settings: read-out: % enzyme activity, 1 μM; Run 1, Run 2
P38b/MAPK11 = P38b/MAPK11 (Homo sapiens, UniProt Q15759); assay: biochemical; settings: read-out: % enzyme activity, 1 μM; Run 1, Run 2
RIPK5 = molecular target: T2, RIPK5 (Homo sapiens, UniProt Q6XUX3); assay: biochemical; settings: read-out: % enzyme activity, 1 μM; Run 1, Run 2
T2 sequence (Q6XUX3 1-929): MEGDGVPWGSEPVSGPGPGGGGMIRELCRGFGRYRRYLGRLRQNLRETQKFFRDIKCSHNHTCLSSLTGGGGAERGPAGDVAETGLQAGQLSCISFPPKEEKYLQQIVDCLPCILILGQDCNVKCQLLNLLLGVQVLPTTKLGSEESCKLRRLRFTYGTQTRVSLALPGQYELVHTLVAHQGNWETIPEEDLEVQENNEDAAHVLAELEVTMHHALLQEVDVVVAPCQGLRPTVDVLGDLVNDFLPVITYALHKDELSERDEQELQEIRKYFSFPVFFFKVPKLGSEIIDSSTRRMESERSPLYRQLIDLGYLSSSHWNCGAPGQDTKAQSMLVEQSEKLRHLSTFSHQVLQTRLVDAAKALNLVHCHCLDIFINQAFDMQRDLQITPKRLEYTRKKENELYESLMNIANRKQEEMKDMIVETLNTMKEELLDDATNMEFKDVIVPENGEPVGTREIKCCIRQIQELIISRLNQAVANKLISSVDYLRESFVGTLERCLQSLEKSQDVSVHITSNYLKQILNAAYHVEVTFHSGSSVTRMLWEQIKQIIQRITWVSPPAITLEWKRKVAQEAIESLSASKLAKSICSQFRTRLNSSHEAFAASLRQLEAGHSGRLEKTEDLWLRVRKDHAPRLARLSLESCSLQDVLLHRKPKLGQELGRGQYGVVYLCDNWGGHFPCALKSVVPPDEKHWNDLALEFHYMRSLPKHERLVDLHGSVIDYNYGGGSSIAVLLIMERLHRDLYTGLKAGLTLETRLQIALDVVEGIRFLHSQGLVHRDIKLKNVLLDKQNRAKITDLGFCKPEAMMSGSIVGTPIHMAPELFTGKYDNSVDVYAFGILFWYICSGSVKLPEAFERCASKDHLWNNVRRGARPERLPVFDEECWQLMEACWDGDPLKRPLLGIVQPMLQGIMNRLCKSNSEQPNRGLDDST

TAOK3/JIK = molecular target: T3, TAOK3/JIK (Homo sapiens, UniProt Q9H2K8); assay: biochemical; settings: read-out: % enzyme activity, 1 μM; Run 1, Run 2
T3 sequence (Q9H2K8 1-898): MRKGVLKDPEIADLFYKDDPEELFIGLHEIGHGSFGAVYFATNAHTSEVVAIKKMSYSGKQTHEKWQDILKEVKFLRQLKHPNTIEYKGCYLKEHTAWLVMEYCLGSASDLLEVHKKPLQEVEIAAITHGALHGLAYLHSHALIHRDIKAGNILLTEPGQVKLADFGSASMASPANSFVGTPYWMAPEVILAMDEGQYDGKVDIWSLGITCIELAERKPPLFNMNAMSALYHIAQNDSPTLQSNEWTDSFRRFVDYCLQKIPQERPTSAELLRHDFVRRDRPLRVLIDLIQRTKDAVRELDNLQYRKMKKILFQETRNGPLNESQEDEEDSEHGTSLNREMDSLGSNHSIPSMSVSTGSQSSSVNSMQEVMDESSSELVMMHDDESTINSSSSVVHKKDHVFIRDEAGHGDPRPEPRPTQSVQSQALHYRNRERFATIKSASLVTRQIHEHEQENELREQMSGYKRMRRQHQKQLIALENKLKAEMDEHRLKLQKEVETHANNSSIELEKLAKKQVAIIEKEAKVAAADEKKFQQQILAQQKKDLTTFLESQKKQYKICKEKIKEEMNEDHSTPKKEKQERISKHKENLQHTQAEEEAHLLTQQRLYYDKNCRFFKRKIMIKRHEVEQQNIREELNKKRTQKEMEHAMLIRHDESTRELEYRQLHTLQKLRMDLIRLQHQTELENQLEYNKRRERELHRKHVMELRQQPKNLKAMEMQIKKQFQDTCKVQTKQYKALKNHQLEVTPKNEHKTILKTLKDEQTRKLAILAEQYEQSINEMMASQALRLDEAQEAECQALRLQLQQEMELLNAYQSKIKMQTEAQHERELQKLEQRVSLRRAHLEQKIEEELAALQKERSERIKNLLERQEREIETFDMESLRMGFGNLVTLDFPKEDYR

Chain of LCK (P06239 whole entry): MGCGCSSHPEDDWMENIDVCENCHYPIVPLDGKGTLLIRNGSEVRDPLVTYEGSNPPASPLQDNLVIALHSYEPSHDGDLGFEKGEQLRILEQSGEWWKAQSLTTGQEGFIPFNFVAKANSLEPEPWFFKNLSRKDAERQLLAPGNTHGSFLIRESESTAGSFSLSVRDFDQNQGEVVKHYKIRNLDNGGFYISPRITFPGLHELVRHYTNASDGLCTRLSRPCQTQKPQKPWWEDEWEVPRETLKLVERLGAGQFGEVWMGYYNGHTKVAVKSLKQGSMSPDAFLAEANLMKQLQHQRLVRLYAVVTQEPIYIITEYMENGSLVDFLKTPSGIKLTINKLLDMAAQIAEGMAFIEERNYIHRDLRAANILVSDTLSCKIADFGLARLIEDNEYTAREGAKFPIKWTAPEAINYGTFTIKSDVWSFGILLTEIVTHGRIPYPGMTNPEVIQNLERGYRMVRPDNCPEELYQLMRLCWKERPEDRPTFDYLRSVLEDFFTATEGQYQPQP
Chain of GRK4 (P32298 whole entry): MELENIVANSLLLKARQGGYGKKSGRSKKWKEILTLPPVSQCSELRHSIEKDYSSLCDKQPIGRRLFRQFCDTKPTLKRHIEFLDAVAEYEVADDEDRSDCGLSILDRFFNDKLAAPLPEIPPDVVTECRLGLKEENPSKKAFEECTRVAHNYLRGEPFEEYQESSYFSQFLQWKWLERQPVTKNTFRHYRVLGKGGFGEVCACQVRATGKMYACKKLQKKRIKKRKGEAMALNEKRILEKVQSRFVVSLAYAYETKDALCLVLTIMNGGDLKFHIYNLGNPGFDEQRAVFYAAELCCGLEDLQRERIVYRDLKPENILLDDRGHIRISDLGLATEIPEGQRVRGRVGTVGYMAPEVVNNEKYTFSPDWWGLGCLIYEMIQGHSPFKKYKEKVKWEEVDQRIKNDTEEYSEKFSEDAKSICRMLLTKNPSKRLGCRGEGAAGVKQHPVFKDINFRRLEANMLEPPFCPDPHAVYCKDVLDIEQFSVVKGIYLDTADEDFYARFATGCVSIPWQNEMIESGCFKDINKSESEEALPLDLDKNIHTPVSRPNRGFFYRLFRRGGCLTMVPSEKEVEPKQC
Chain of MLCK/MYLK (Q15746 whole entry): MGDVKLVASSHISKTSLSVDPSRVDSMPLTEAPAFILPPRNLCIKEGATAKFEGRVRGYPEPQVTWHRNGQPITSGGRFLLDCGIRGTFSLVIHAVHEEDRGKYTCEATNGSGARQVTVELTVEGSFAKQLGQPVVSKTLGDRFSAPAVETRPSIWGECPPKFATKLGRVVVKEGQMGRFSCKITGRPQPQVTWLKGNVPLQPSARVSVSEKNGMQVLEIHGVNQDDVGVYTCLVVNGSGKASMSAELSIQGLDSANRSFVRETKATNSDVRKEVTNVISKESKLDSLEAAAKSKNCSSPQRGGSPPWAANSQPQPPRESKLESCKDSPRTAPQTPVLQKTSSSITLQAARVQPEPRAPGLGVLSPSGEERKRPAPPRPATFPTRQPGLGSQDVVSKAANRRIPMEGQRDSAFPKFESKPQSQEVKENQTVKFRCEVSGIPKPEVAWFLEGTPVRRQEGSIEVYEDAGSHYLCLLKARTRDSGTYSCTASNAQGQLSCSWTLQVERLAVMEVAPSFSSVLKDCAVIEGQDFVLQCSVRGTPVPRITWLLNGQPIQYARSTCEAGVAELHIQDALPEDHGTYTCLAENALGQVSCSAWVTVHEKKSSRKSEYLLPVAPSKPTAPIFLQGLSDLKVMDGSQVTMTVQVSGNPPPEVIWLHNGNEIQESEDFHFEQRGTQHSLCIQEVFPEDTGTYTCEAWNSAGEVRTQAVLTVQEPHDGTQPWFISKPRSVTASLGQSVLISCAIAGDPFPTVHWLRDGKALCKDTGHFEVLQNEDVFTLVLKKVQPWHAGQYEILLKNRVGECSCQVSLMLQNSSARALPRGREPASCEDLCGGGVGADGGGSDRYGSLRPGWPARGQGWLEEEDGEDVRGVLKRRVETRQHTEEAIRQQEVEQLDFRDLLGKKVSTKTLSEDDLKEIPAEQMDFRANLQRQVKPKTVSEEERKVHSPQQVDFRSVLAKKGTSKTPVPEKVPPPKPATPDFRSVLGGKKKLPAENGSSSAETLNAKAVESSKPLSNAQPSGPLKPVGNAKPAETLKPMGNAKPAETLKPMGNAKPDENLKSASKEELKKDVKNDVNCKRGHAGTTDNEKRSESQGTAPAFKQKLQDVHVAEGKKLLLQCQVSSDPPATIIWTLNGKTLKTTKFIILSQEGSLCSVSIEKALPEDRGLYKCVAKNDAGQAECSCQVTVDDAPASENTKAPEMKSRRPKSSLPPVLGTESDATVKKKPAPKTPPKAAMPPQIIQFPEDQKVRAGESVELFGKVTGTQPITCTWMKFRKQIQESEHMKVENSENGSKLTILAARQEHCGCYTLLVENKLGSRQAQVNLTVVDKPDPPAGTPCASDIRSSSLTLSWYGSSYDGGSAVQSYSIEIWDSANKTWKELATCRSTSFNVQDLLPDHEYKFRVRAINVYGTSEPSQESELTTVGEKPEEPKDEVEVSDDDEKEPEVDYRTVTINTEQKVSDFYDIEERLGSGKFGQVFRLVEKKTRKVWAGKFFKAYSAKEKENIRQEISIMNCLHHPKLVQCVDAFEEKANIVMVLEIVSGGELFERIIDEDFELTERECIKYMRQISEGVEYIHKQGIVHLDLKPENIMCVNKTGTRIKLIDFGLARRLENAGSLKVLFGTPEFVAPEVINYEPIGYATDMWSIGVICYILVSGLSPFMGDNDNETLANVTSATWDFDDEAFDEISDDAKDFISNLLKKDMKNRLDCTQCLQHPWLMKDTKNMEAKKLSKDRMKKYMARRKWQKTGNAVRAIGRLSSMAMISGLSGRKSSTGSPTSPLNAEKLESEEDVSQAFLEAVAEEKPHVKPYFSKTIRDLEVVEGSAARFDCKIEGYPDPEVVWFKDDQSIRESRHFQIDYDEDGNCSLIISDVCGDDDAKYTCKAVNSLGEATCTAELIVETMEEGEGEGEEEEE
Chain of CK2a (P68400 whole entry): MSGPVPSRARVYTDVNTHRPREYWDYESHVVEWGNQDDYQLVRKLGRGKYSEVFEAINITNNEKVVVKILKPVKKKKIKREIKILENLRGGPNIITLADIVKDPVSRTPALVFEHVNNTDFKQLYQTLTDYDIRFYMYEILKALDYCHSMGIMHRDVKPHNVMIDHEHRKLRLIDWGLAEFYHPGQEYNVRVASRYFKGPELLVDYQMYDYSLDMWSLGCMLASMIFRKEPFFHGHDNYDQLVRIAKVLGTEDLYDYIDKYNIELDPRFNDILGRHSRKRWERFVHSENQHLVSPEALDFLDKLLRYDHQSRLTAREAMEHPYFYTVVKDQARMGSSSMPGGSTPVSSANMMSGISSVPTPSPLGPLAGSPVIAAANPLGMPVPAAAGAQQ
Chain of ERK1 (P27361 whole entry): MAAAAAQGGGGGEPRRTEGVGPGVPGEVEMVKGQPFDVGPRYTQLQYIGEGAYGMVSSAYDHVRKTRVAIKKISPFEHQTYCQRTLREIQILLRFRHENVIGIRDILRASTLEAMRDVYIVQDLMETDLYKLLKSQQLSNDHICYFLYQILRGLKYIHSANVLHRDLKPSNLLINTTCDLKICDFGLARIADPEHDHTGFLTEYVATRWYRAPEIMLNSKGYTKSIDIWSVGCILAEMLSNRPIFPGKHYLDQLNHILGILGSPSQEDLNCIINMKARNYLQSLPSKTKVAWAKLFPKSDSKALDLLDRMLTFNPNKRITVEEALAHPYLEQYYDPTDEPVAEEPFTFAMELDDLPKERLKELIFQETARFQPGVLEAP
Chain of MLK3/MAP3K11 (Q16584 whole entry): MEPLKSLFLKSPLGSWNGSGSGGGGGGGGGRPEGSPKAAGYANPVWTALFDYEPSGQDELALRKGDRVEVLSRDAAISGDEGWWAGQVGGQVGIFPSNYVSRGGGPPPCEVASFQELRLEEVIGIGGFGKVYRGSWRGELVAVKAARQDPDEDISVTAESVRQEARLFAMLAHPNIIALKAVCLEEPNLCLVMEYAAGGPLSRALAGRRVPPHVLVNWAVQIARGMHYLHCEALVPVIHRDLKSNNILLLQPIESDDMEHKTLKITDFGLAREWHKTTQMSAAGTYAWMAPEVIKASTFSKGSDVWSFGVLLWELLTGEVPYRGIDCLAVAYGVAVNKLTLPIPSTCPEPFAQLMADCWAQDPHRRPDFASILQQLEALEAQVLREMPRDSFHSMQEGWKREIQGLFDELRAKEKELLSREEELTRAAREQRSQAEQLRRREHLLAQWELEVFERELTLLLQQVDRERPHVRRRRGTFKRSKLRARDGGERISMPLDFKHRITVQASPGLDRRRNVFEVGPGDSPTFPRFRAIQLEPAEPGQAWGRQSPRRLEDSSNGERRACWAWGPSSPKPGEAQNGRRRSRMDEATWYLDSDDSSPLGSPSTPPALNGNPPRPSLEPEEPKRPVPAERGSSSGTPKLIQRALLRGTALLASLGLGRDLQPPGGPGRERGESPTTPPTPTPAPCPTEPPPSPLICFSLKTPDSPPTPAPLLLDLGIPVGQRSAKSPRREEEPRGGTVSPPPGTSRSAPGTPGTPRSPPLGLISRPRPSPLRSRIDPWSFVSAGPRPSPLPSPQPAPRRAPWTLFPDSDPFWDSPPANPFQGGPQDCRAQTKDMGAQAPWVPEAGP
Chain of P38b/MAPK11 (Q15759 whole entry): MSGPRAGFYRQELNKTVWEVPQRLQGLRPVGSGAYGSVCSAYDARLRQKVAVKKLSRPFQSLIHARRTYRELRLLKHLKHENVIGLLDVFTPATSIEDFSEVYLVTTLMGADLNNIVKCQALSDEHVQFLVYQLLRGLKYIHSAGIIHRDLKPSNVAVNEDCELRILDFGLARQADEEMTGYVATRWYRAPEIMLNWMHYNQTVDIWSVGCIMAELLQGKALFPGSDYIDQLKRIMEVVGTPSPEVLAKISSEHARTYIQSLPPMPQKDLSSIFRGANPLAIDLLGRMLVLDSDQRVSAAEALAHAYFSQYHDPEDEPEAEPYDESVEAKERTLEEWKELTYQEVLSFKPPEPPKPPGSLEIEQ

Compound	% enzyme activity (AKT1) [%]	% enzyme activity (MLCK/MYLK) [%]	remaining activity at 1 µM (ABL1) [%]	remaining activity at 1 µM (CDK18/cyclin Y (PCTK3)) [%]	remaining activity at 1 µM (CK1a1L) [%]	remaining activity at 1 µM (CK2a) [%]	remaining activity at 1 µM (CLK3) [%]	remaining activity at 1 µM (ERK1) [%]	remaining activity at 1 µM (GRK4) [%]	remaining activity at 1 µM (LCK) [%]	remaining activity at 1 µM (MLK3/MAP3K11) [%]	remaining activity at 1 µM (OSR1/OXSR1) [%]	remaining activity at 1 µM (P38b/MAPK11) [%]	remaining activity at 1 µM (RIPK5) [%]	remaining activity at 1 µM (TAOK3/JIK) [%]
COc1cc(-c2cncc(-c3ccc(N4CCN(C)CC4)cc3)c2C)cc(F)c1C(N)=O [Compound 26a, 2-Fluoro-6-methoxy-4-(4-methyl-5-(4-(4-methylpiperazin-1-yl)phenyl)pyridin-3-yl)benzamide]	102.39	106.15	75.2	102	98.4	92.5	103	97.3	80.4	93.2	99.4	93.4	92.3	83.1	69.7
COc1cc(-c2cncc(-c3ccc(N4C[C@@H](C)N(C)[C@@H](C)C4)cc3)c2C)cc(F)c1C(N)=O [Compound 26c, 2-Fluoro-6-methoxy-4-(4-methyl-5-(4-((3R,5S)-3,4,5-trimethylpiperazin-1-yl)phenyl)pyridin-3-yl)benzamide]	104.50	101.49	83.9	99	99.4	87.2	88.3	95.3	97.1	101	96.7	95	95.5	86.8	84.5
